From patent EP2573105B1, “p16INK4a derived peptides for prophylaxis and therapy of HPV-associated tumors and other p16INK4a expressing tumors” (Ruprecht-Karls-Universität Heidelberg, priority 2011, dated 2013)

System: Peripheral blood mononuclear cells (PBMCs)
Assay: BrdU proliferation assay of PBMCs incubated with p16INK4a peptides
Type: cell-based, human
Conditions: first reacting patient; PBMCs from women with CIN2/3
Procedure: Peripheral blood mononuclear cells (PBMCs) from 13 women with p16^INK4a-expressing high grade cervical dysplasia (CIN2/3) were incubated with p16^INK4a peptides (Table 1) to determine the proliferative capacity of the immune cells by applying a BrdU assay as a global measure for lymphoproliferative potential after challenge with the p16^INK4a peptides. The BrdU-assay is a colorimetric immunoassay applied for the quantification of cell proliferation based on the measurement of the thymidine analogue 5-bromo-2'-deoxyuridine incorporation during DNA synthesis. PBMCs in IMDM medium supplemented with 10% human serum were seeded in a 96-well-microtiter-plate (flat bottom) at a density of 150.000 cells/50µl/well. Cells in each 4 replicate wells were incubated in the presence of the seven p16INK4a peptides (Table 1), tetanus toxoid (20 ng/ml, Calbiochem, La Jolla, CA) and mitogen PHA-L (5 µg/ml, Roche, Mannheim, Germany) as positive controls and no antigen as negative control for 6 days at 37°C, 5% CO2. […] The enzyme reaction was stopped by adding 25 µl/well 1N H2SO4 and optical density (OD) was measured at 450 nm (reference wavelength 620 nm). […]

## GHRDVARYLRAAAGGTRGSNHARIDAAEGPSDIPD [p16INK4a_123-156]
  response (proliferation, BrdU assay): showed response
